# Laboratory results taken from patent US9856232B1, “Dihydropyrimidinone derivatives” (KING SAUD UNIVERSITY, priority 2017, dated 2018).
# Marks after values point to notes of the source that are not given here.
# Columns and labels:
# Assay type in all cases: in vivo, Albino Wistar rats
# [1] = test system: Gastric lesions induced by 80% ethanol; test: Gastric lesions induced by ethanol (ulcer index by severity scores); details: Rattus norvegicus, po, Ranitidine 50 mg/kg, vs 80% EtOH group of the row; read-out: Gastric lesions induced by 80% ethanol, % change
# Method: (§1) Albino Wistar rats of either sex, approximately the same age, weighing 150 to 200 g and fed on a diet of standard chow were used in this study. They were randomly divided into experimental groups of six rats each. Compounds (N-1 to N-18) 12.5, 25, and 50 mg/kg were given orally in the anti-ulcer studies and intraperitoneally for gastric secretion evaluation. The rats were sacrificed, and the stomachs removed and opened along the greater curvature, After washing with saline, the gastric lesions were quantified by a person unaware of the treatments. The animal study protocol was approved by the Research and Ethics Committee of the Experimental Animal Care Society, College of Pharmacy, King Saud University, Riyadh, Saudi Arabia.
# Gastric lesions induced by ethanol: Albino rats of either sex weighing between (150-200 g) are divided into groups. The animals were fasted for 24 hours with free access to water. Animals were given test drugs or standard drug. One hour later 1 mL/200 gm of 80% ethanol is administered orally to each animal. The animals were anaesthetized 1 hour latter with anesthetic ether and stomach was incised along the greater curvature and ulceration was scored. The number of ulcers and the length of each ulcer were measured. Ulcer index was calculated using severity scores. The mucosal damage was examined by means of a magnifying glass. For each stomach the mucosal damage was assessed according to the following scoring system: 0.5 redness; 1.0 spot ulcers; 1.5 hemorrhagic streaks; 2.0 ulcers<3, but≦5; 3.0 ulcers>5. Table 1 provides the effect of compounds on gastric lesions induced by 80% ethanol (mean±SE).
# [2] = test system: Hypothermic restraint stress-induced intraluminal bleeding and gastric lesion; test: Hypothermic restraint stress-induced ulcers; design: Gastric Lesion Ulcer Index: scale not given here; details: 50 mg/kg; hypothermic restraint 3 h; mean ± SE
# [3] = test system: Indomethacin-induced gastric mucosal lesions; test: Gastric lesions induced by Indomethacin; design: scale not given here; details: 50 mg/kg, i.p; 30 min before Indomethacin 30 mg/kg; mean ± SE
# Excerpt: as §1, with “Compounds (N-1 to N-18) 12.5, 25, and 50 mg/kg were given orally in the anti-ulcer studies and intraperitoneally for gastric secretion evaluation.” left out
# Gastric lesions induced by Indomethacin: Indomethacin was suspended in 1.0% carboxymethylcellulose (CMC) in water (6 mg/mL) and administered orally to the 36 hour fasted rats at a dose of 30 mg/kg body weight. Control rats were treated similarly with an equivalent amount of vehicle. […] The animals were sacrificed 6 hours after treatment. The stomachs were excised, rinsed with normal saline and examined for ulceration. Table 3 provides the effect of compounds on Indomethacin-induced gastric mucosal lesions (mean±SE).
# [4] = test system: Gastric lesions induced by necrotizing agents (80% ethanol, 0.2 mol/L NaOH or 25% NaCl); test: Gastric lesions induced by necrotizing agents (cytoprotection); details: 50 mg/kg, i.p; 30 min before necrotizing agent; mean ± SE
# [5] = test system: gastric wall mucus in stomach tissue, change induced by 80% ethanol; test: Determination of gastric wall mucus (GWM); details: 50 mg/kg, i.p; 80% ethanol-treated rats; mean ± SE
# Method: as §1
# Determination of gastric wall mucus (GWM): Gastric wall mucus was determined according to the modified procedure. The glandular segment of the stomach was separated from the rumen of the stomach, weighed, and transferred immediately to 10 mL of 0.1% w/v Alcian blue solution (in […] sucrose solution buffered with […] sodium acetate at pH 5. Tissue was stained for 2 hours in Alcian blue, and excess dye was removed by two successive rinses with 10 mL of […] sucrose, firstly after 15 minutes and then after 45 minutes. Dye complexed with the gastric wall mucus was extracted with 10 ml of […] magnesium chloride which was intermittently shaken for 1 minute at 30 minute intervals for 2 hours. Four milliliters of blue extract were then vigorously shaken with an equal volume of diethyl ether. The resulting emulsion was centrifuged at 4000 r/min for 10 minutes and the absorbance of the aqueous layer was recorded at 580 nm. The quantity of Alcian blue extracted per gram of wet glandular tissue was then calculated. Table 6 provides the effect of compounds on the change in gastric wall mucus in stomach tissue induced by 80% ethanol (mean±SE).
# [6] = test system: gastric mucosal non-protein sulfhydryls, induced by 80% ethanol; test: Estimation of non-protein sulfhydryls (NP-SH); details: dose 50; stomach tissue, 80% ethanol-treated rats; mean ± SE
# Method: as §1
# Estimation of non-protein sulfhydryls (NP_SH): Gastric mucosal non-protein sulfhydryls were measured according to the method. The glandular part of the stomach was homogenized in ice-cold 0.02 mmol/L ethylenediaminetetraacetic acid (EDTA). Aliquots of 5 mL of the homogenates were mixed in 15 mL test tubes with 4 mL of distilled water and 1 mL of 50% trichloroacetic acid (TCA). The tubes were shaken intermittently for 10 minutes and centrifuged at 3000 r/min. Two milliliters of supernatant were mixed with 4 mL of 0.4 mol/L Tris buffer at pH 8.9. Then 0.1 ML of 5, 5′-dithio-bis (2-nitrobenzoic acid) (DTNB) was added and the sample was shaken. The absorbance was measured within 5 minutes of DTNB addition at 412 nm against a reagent blank.
# [7] = test system: gastric secretion in pylorus-ligated Shay rats; test: Pylorus-ligated rats: gastric secretion, acidity and lesion index; design: Ulcer Index, pylorus-ligated Shay rats: scale not given here; details: 50 mg/kg, i.p.; 6 h after pylorus ligation; mean ± SE
# Method: as §1
# Pylorus-ligated rats: Rats were fasted for 36 hours with access to water ad libitum before pylorus ligation under ether anesthesia was carried out. Care was taken not to cause bleeding or to occlude blood vessels. Compounds (N-3, N-8, N-11, and N-15) were administered intraperitoneally immediately after pylorus ligation. The rats were sacrificed at 6 hours after pylorus ligation. The stomachs were removed, the contents were collected, volumes measured, centrifuged and analyzed for tritratable acidity against […], NaOH at pH 7.0. Table 5 provides the effect of compounds on gastric secretion, acidity, and gastric lesion index in pylorus-ligated Shay rats (mean±SE).
# [8] = test system: total protein in stomach tissue, induced by 80% ethanol; test: Total protein in stomach tissue; details: dose 50, 80% ethanol-treated rats, mean ± SE
# [9] = test system: malondialdehyde in stomach tissue, induced by 80% ethanol; test: Determination of malondialdehyde (MDA); details: dose 50, 80% ethanol-treated rats, mean ± SE
# Method: as §1
# Determination of malondialdehyde (MDA): The animals were sacrificed 1 hour after ethanol administration. The stomachs were removed and each was homogenized in 0.15 mol/L KCl (at 4° C.) in a Potter-Elvehjem type C homogenizer to give a 10% w/v homogenate. Aliquots of homogenate 1 mL in volume were incubated at 37° C. for 3 hours in a metabolic shaker. Then 1 mL of 10% aqueous TCA was added and mixed. The mixture was then centrifuged at 800 g for 10 minutes. One milliliter of the supernatant was removed and mixed with 1 mL of 0.67% w/v thiobarbituric acid in water and placed in a boiling water bath for 10 minutes. The mixture was cooled and diluted with 1 mL distilled water. The absorbance of the solution was then read at 535 nm. The content of malondialdehyde (nmol/g wet tissue) (index of the magnitude of lipid peroxidation) was then calculated, by reference to a standard curve of malondialdehyde solution. Table 7 provides the effect of compounds on the levels of MDA, NP_SH, and total protein in stomach tissue induced by 80% ethanol (mean±SE).
smiles,measurement,setting,value
"CNC(=C[N+](=O)[O-])NCCSCc1ccc(CN(C)C)o1 [Ranitidine, reference compound]",inhibition in vivo at 50 mg/kg,[1],73.3%
same,Gastric Lesion Ulcer Index,[2],9.66 ± 0.95
same,Intraluminal Bleeding Score,[2],0.83 ± 0.30
same,"Ulcer Index, indomethacin-induced gastric mucosal lesions",[3],8.50 ± 0.56
same,"Ulcer Index, 0.2 mol/L NaOH",[4],1.00 ± 0.36
same,"Ulcer Index, 25% NaCl",[4],1.16 ± 0.30
same,"Ulcer Index, 80% EtOH",[4],1.50 ± 0.22
same,Gastric Wall Mucus,[5],287.24 ± 10.70***^b μg/g
same,NP-SH,[6],4.24 ± 0.15**^b nmol/g
same,Titratable Acidity,[7],58.88 ± 1.85 mEg/L
same,"Ulcer Index, pylorus-ligated Shay rats",[7],0.50 ± 0.22
same,Volume of Gastric Content,[7],4.06 ± 0.18 mL
same,Total Protein,[8],104.59 ± 1.59***^b g/L
same,MDA,[9],1.65 ± 0.02***^b nmol/g
